Laboratory results taken from ChEMBL document CHEMBL3045265, “Synthesis and Fungicidal Activity of 2-Alkoxyimino-2-cyanoacetamide Derivatives” (1998).

tested on: Pseudoperonospora cubensis; assay: Fungicidal activity against Pseudoperonospora cubensis in cucumber plant assessed as cucumber downy mildew disease control at 31.3 ppm at 22 +/- 2 degC, 98% RH measured after 10 days; format: functional

Compound | Activity [%]
CO/N=C(\C#N)C(=O)NC1=NOC(C)C1 (stereo unspecified) | 70
CCO/N=C(\C#N)C(=O)NC1=NOC(C)(C)C1 | 70
CC(C)O/N=C(\C#N)C(=O)NC1=NOC(C)(C)C1 | 70
C=CC1CC(NC(=O)/C(C#N)=N/OC)=NO1 (stereo unspecified) | 70
CO/N=C(\C#N)C(=O)NC1=NOC(CCl)C1 (stereo unspecified) | 70
CO/N=C(\C#N)C(=O)NC1=NOC(C)(CO)C1 (stereo unspecified) | 70
CO/N=C(\C#N)C(=O)NC1=NOC(C)(CCl)C1 (stereo unspecified) | 70

tested on: Pseudoperonospora cubensis; assay: Fungicidal activity against Pseudoperonospora cubensis in cucumber plant assessed as cucumber downy mildew disease control at 500 ppm at 22 +/- 2 degC, 98% RH measured after 10 days; format: functional

Compound | Activity [%]
CO/N=C(\C#N)C(=O)NC1=NOC(c2ccccc2)C1 (stereo unspecified) | <70
CO/N=C(\C#N)C(=O)NC1=NOC(C)(C)C1C (stereo unspecified) | 70
CC1(C)CC(NC(=O)/C(C#N)=N/OCC#N)=NO1 | <70
CC1(C)CC(NC(=O)/C(C#N)=N/OCc2ccccc2)=NO1 | <70
CO/N=C(\C#N)C(=O)N(C)C1=NOC(C)(C)C1 | <70
CCN(C(=O)/C(C#N)=N/OC)C1=NOC(C)(C)C1 | <70
CO/N=C(\C#N)C(=O)N(CC(=O)OC)C1=NOC(C)(C)C1 | <70
COCN(C(=O)/C(C#N)=N/OC)C1=NOC(C)(C)C1 | <70
CO/N=C(\C#N)C(=O)Nc1cc(C)cs1 | <70
CO/N=C(\C#N)C(=O)Nc1nnc(C)s1 | <70
CCOC(=O)NNC(=O)NC(=O)/C(C#N)=N/OC | <70
CO/N=C(\C#N)C(=O)NC(=O)NNC(=O)c1ccccc1 | <70
CO/N=C(\C#N)C(=O)NC(=O)NNS(=O)(=O)c1ccccc1 | <70
CO/N=C(\C#N)C(=O)NC(=O)OC(C)(C)C(=O)OC | 70
CO/N=C(\C#N)C(=O)NC(=O)OCC(C)(C)C(=O)OC | <70
CO/N=C(\C#N)C(=O)NC(=O)OCC(=O)N(C)c1ccccc1 | <70
CO/N=C(\C#N)C(=O)NC(=O)ON=C(C)C | 70
CO/N=C(\C#N)C(=O)NC1=NOC(C2CCCCC2)C1 (stereo unspecified) | <70
CO/N=C(\C#N)C(=O)NC1=NOC(Cc2ccccc2)C1 (stereo unspecified) | <70
C=CC1CC(NC(=O)/C(C#N)=N/OC)=NO1 (stereo unspecified) | <70
CCC1ON=C(NC(=O)/C(C#N)=N/OC)C1CC (stereo unspecified) | 70

tested on: Pseudoperonospora cubensis; assay: Fungicidal activity against Pseudoperonospora cubensis in cucumber plant assessed as cucumber downy mildew disease control at 7.8 ppm at 22 +/- 2 degC, 98% RH measured after 10 days; format: functional

Compound | Activity [%]
CO/N=C(\C#N)C(=O)NC1=NOC(C)(C)C1 | 70

tested on: Pseudoperonospora cubensis; assay: Fungicidal activity against Pseudoperonospora cubensis in cucumber plant assessed as cucumber downy mildew disease control at 125 ppm at 22 +/- 2 degC, 98% RH measured after 10 days; format: functional

Compound | Activity [%]
CO/N=C(\C#N)C(=O)NC1=NOC(CCl)(CCl)C1 | 70
C=CCO/N=C(\C#N)C(=O)NC1=NOC(C)(C)C1 | 70
COCO/N=C(\C#N)C(=O)NC1=NOC(C)(C)C1 | 70
CO/N=C(\C#N)C(=O)Nc1cc(C)on1 | 70
CO/N=C(\C#N)C(=O)NC(=O)OC(C)C | 70
CO/N=C(\C#N)C(=O)NC1=NOCC1 | 70
CO/N=C(\C#N)C(=O)NC1=NOCC1C (stereo unspecified) | 70
CCC1CC(NC(=O)/C(C#N)=N/OC)=NO1 (stereo unspecified) | 70
CO/N=C(\C#N)C(=O)NC1=NOC(C(C)C)C1 (stereo unspecified) | 70
CCCCC1CC(NC(=O)/C(C#N)=N/OC)=NO1 (stereo unspecified) | 70
CO/N=C(\C#N)C(=O)NC1=NOC(CO)C1 (stereo unspecified) | 70
CO/N=C(\C#N)C(=O)NC1=NOC(C)C1C (stereo unspecified) | 70
CCC1(CC)CC(NC(=O)/C(C#N)=N/OC)=NO1 | 70
CCC1(C)CC(NC(=O)/C(C#N)=N/OC)=NO1 (stereo unspecified) | 70
CCCC1(C)CC(NC(=O)/C(C#N)=N/OC)=NO1 (stereo unspecified) | 70
CO/N=C(\C#N)C(=O)NC1=NOC(C(C)(C)C)C1 (stereo unspecified) | 70
CO/N=C(\C#N)C(=O)NC(=O)OC(C)(C)C | 70
